Source: article doi:10.1101/2024.10.18.618978v3 (biorxiv, 2026)

Assays:
[1] = target: T1, SpeG (Staphylococcus aureus, UniProt A0A0H2XGJ0); test: colorimetric DTNB SSAT assay; format: biochemical
T1 sequence (A0A0H2XGJ0 1-165): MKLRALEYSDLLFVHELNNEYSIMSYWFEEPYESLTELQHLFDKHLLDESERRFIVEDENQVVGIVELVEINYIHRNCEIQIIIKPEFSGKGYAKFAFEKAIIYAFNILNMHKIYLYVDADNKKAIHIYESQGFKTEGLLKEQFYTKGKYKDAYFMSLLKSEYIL

[2] = target: SAT1 (Homo sapiens, UniProt P21673); test: colorimetric DTNB SSAT assay; format: biochemical
[3] = target: T1, SpeG; test: thermal shift assay; format: binding; settings: 1.6 μM SpeG, 3-fold dilution series of compound; Tm decreased

Sequence of SAT1 (P21673 whole entry): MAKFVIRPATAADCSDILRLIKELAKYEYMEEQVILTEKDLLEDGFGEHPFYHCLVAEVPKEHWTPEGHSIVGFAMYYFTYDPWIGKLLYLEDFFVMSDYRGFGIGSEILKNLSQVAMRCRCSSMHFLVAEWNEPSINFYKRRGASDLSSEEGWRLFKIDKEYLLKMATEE

Structure (SMILES)	Ki [1] [µM]	Ki [2] [µM]	Tm [3]
CCCCCCCCCCN [OES2-0077]	853 ± 238	743 ± 250	–
CCCCCCCCCCCCN [OES2-0052]	160 ± 38.3	160 ± 50.4	–
CCCCCCCCCCCCNCCCN [OES2-0017]	–	–	OES2-0017 titration decreased SpeG Tm

Continued, values first:

Ki [1] [µM]	Ki [2] [µM]	Tm [3]	Structure (SMILES)
1270 ± 263	–	–	CCCCCCCCNCCN [OES2-0085]
–	228 ± 49.7	–	CCCCCCCCNCCCN [OES2-0045]
1200 ± 425	–	–	CCCCCCCCCCNCCN [OES2-0086]
